Patent US7737161B2, “Condensed furan compounds” (Mitsubishi Tanabe Pharma Corporation, priority 2003, dated 2010)

Biological target: T1, human FXa (Homo sapiens, UniProt P00742)
T1 construct: purchased Enzyme Research Laboratories, Inc
Test: Inhibitory effect on activated blood coagulation factor X (chromogenic substrate S-2222)
Assay type: biochemical
Settings: human FXa 0.05 U/ml, S-2222 0.5 mM, 37° C., pH 8.4
Experimental: A substrate solution was prepared by dissolving chromogenic substrate S-2222 at the concentration of 0.625 mM (final concentration 0.5 mM) in 100 mM Tris buffer (pH 8.4) containing 200 mM sodium chloride and 0.1% bovine serum albumin, and a test compound solution was prepared by dissolving a test compound in a buffer containing 10% dimethyl sulfoxide. The test compound solution (25 μl) was added to the substrate solution (200 μl). In the control group, 25 μl of the buffer containing 10% dimethyl sulfoxide was used instead of the test compound solution.
After pre-warming at 37° C. for 3 minutes, 25 μl of human FXa (Enzyme Research Laboratories, Inc.) dissolved at 0.5 U/ml in a buffer was added to the reaction mixture (final concentration of FXa: 0.05 U/ml) to initiate the reaction. During a 5-minute reaction at 37° C., the absorbance at 405 nm was monitored continuously on a 96 well microplate reader (Spectra MAX250, Molecular Devices) and the increase of absorbance was used as an index of FXa activity. In order to evaluate FXa inhibitory activity of a test compound, the 50% inhibitory concentration of the test compound for FXa activity compared to the control group (IC50 value) was calculated using analytic soft (GraphPad Prism, GraphPad Software, Inc.).

T1 sequence (P00742 235-488 limits assumed): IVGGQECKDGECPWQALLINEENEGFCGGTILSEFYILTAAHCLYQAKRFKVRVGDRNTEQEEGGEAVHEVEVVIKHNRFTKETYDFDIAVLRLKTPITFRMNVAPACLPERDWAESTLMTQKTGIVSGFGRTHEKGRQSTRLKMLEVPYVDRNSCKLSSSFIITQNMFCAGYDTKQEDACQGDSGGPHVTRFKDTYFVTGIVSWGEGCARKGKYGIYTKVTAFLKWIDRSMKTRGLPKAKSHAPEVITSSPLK
T1 sequence (P00742 41-179 partner limits assumed): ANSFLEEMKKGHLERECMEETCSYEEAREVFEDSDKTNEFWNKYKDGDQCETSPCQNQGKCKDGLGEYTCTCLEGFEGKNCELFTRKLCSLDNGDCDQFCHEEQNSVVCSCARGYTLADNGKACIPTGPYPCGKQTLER

IC50: 10.8 nM
SMILES: COc1ccc2oc(C(=O)Nc3ccc(Cl)cn3)c(NC(=O)[C@H]3CC[C@H](N(C)C)CC3)c2n1 [Example 36]
